Reference: patent US20220168309A1 (F-STAR THERAPEUTICS, INC., priority 2019, published 2022)

These compounds were tested against STING (Homo sapiens, UniProt Q86WV6) (assay: STING antagonist activity, cell-based ISG54 promoter-reporter luciferase measurement of IRF activity (THP-1 dual / RAW-ISG cells)). Details: Antagonist Activity of Exemplary Compounds; cell line and agonist not given.
Procedure, shortened: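 THP-1 dual or RAW-ISG cells (50,000/well) pretreated 1 h with compound (10 to 0.01 uM), then stimulated with SB 11285 (30 nM or 1 μM) or 2′3′-cGAMP (10 ug/mL or lipo mixture) for 18–20 h at 37° C. IRF-driven luciferase read by Quanti-Luc; % inhibition versus untreated or DMSO wells, IC50 by curve fit.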

Sequence of STING (Q86WV6 whole entry): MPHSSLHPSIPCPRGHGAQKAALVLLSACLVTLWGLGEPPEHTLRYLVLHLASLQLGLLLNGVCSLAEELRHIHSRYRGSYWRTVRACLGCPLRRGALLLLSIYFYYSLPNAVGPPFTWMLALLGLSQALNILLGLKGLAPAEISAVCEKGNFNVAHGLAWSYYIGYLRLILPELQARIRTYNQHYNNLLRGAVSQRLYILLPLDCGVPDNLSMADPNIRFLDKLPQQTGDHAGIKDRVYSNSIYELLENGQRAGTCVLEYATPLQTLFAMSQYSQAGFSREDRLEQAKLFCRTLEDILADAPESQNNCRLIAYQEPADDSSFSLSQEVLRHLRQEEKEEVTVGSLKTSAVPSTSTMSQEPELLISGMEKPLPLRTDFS

Structure (SMILES) | IC50 [nM]
COC(=O)CCCCCCCCCCCCCCCn1cnc2nc(Cl)nc(Cl)c21 [Compound 6] | 1 to 1000
CC(=O)OCCCCCCCCn1c(C)nc2nc(Cl)nc(Cl)c21 [Compound 151, 8-(2,6-dichloro-8-methyl-7H-purin-7-yl)octyl acetate] | 1000 to 5000

Same assay, conditions: Antagonist Activity of Exemplary Compounds; cell line and agonist not given; read-out: IC50

Structure (SMILES) | IC50 [nM]
Cc1nc2nc(Cl)nc(S(=O)(=O)C(C)C)c2n1CCCCCCCCCCN1CCOCC1 [Compound 137, 4-(10-(2-chloro-6-(isopropylsulfonyl)-8-methyl-7H-purin-7-yl)decyl)morpholine] | 1000 to 5000
Cc1nc2nc(Cl)nc(S(=O)(=O)C(C)C)c2n1CCCCCCCCCCCCCCCC(=O)O [Compound 139, 16-(2-chloro-6-(isopropylsulfonyl)-8-methyl-7H-purin-7-yl)hexadecanoic acid] | 1 to 1000
Cc1nc2nc(Cl)nc(S(=O)(=O)C(C)C)c2n1CCCCCCCCCCCCCCCc1nnnn1C [Compound 140, 2-chloro-6-(isopropylsulfonyl)-8-methyl-7-(15-(1-methyl-1H-tetrazol-5-yl)pentadecyl)-7H-purine] | 1 to 1000
COC(=O)CCCCCCN(C)CCCCCCCCn1c(C)nc2nc(Cl)nc(Cl)c21 [Compound 141, Methyl 7-((8-(2,6-dichloro-8-methyl-7H-purin-7-yl)octyl)(methyl)amino)heptanoate] | 1 to 1000
Cc1nc2nc(Cl)nc(S(=O)(=O)C(C)C)c2n1CCCCCCCCCCCCCCCCN1CCOCC1 [Compound 142] | 1 to 1000
COC(=O)CCCCCO[C@@H]1CCN(CCCCCCn2c(C)nc3nc(Cl)nc(S(=O)(=O)C(C)C)c32)C1 [Compound 143, (3R)-1-(6-(2-chloro-6-(isopropylsulfonyl)-8-methyl-7H-purin-7-yl)hexyl)-3-((6-methoxy-6-oxohexyl)oxy)pyrrolidin-1-ium chloride] | 1000 to 5000
Cc1nc2nc(Cl)nc(S(=O)(=O)C(C)C)c2n1CCCCCCCCCCCCCCCC(=O)OCCO [Compound 144, 2-hydroxyethyl 16-(2-chloro-6-(isopropylsulfonyl)-8-methyl-7H-purin-7-yl)hexadecanoate] | 1 to 1000
Cc1nc2nc(Cl)nc(S(=O)(=O)C(C)C)c2n1CCCCCCCCCCCCCCCC(=O)N1CCOCC1 [Compound 145, 16-(2-chloro-6-(isopropylsulfonyl)-8-methyl-7H-purin-7-yl)-1-morpholinohexadecan-1-one] | 1 to 1000
Cc1nc2nc(Cl)nc(S(=O)(=O)CCO)c2n1CCCCCCCCCCCCCCCC(=O)OC(C)C [Compound 146, isopropyl 16-(2-chloro-6-((2-hydroxyethyl)sulfonyl)-8-methyl-7H-purin-7-yl)hexadecanoate] | 1 to 1000
COC(=O)CCCCCCCCCCCCCCCn1c(C)nc2nc(Cl)nc(S(=O)(=O)CCN)c21 [Compound 147, methyl 16-(6-((2-aminoethyl)sulfonyl)-2-chloro-8-methyl-7H-purin-7-yl)hexadecanoate] | 1000 to 5000
COC(=O)[C@@H](NC(=O)CCCCCCCCCCCCCCCn1c(C)nc2nc(Cl)nc(S(=O)(=O)C(C)C)c21)C(C)C [Compound 148, methyl (16-(2-chloro-6-(isopropylsulfonyl)-8-methyl-7H-purin-7-yl)hexadecanoyl)-L-valinate] | 1 to 1000
Cc1nc2nc(Cl)nc(S(=O)(=O)C(C)C)c2n1CCCCCCCCCCCCCCCC(N)=O [Compound 149, 16-(2-chloro-6-(isopropylsulfonyl)-8-methyl-7H-purin-7-yl)hexadecanamide] | 1 to 1000
Cc1nc2nc(Cl)nc(S(=O)(=O)C(C)C)c2n1CCCCCCCCCCCCCCCC(=O)N(C)C [Compound 150, 16-(2-chloro-6-(isopropylsulfonyl)-8-methyl-7H-purin-7-yl)-N,N-dimethylhexadecanamide] | 1 to 1000
COC(=O)CCCCCCN(C)CCCCCCCCn1c(C)nc2nc(Cl)nc(S(=O)(=O)C(C)C)c21 [Compound 152, Methyl 7-((8-(2-chloro-6-(isopropylsulfonyl)-8-methyl-7H-purin-7-yl)octyl)(methyl)-amino)heptanoate] | 1000 to 5000
COC(=O)CCCN1CCN(CCCCCCn2c(C)nc3nc(Cl)nc(Cl)c32)CC1 [Compound 153, Methyl 4-(4-(6-(2,6-dichloro-8-methyl-7H-purin-7-yl)hexyl)piperazin-1-yl)butanoate] | 1000 to 5000
COC(=O)CCCCCCCCCCCCCCCn1c(CN2CCOCC2)nc2nc(Cl)nc(Cl)c21 [Compound 154, methyl 16-(2,6-dichloro-8-(morpholinomethyl)-7H-purin-7-yl)hexadecanoate] | 1 to 1000
COC(=O)CCCCCCNCCCCCCCCn1c(C)nc2nc(Cl)nc(Cl)c21 [Compound 155, Methyl 7-((8-(2,6-dichloro-8-methyl-7H-purin-7-yl)octyl)amino)heptanoate] | 1 to 1000
COC(=O)CCCCCOC1CCN(CCCCCCn2c(C)nc3nc(Cl)nc(Cl)c32)CC1 [Compound 156, Methyl 6-((1-(6-(2,6-dichloro-8-methyl-7H-purin-7-yl)hexyl)piperidin-4-yl)oxy)hexanoate] | 1000 to 5000
Cc1nc2nc(Cl)nc(Cl)c2n1CCCCCCCCCCCCCCCC#N [Compound 157, 16-(2,6-dichloro-8-methyl-7H-purin-7-yl)hexadecanenitrile] | 1 to 1000
Cc1nc2nc(Cl)nc(S(=O)(=O)C(C)C)c2n1CCCCCCCCCCCCCCCC(=O)OCC1CC1 [Compound 158, Cyclopropylmethyl 16-(2-chloro-6-(isopropylsulfonyl)-8-methyl-7H-purin-7-yl)hexadecanoate] | 1 to 1000
Cc1nc2nc(Cl)nc(S(=O)(=O)C(C)C)c2n1CCCCCCCCCCCCCCCC(=O)OCC(C)C [Compound 159, Isobutyl 16-(2-chloro-6-(isopropylsulfonyl)-8-methyl-7H-purin-7-yl)hexadecanoate] | 1000 to 5000
[2H]C([2H])([2H])OC(=O)CCCCCCCCCCCCCCCn1c(C)nc2nc(Cl)nc(S(=O)(=O)C(C)C)c21 [Compound 160, Methyl-d3 16-(2-chloro-6-(isopropylsulfonyl)-8-methyl-7H-purin-7-yl)hexadecanoate] | 1 to 1000
COC(=O)CCCCCCCCCCCCCCn1c(C)nc2nc(Cl)nc(Cl)c21 [Compound 161, Methyl 15-(2,6-dichloro-8-methyl-7H-purin-7-yl)pentadecanoate] | 1 to 1000
COC(=O)CCCCCCCCCCCCCCn1c(C)nc2nc(Cl)nc(S(=O)(=O)C(C)C)c21 [Compound 162, Methyl 15-(2-chloro-6-(isopropylsulfonyl)-8-methyl-7H-purin-7-yl)pentadecanoate] | 1 to 1000
Cc1nc2nc(Cl)nc(Cl)c2n1CCCCCCCCCCCCCCCCN [Compound 163, 16-(2,6-dichloro-8-methyl-7H-purin-7-yl)hexadecan-1-amine] | 1 to 1000
Cc1nc2nc(Cl)nc(S(=O)(=O)C(C)C)c2n1CCCCCCCCCCCCCCCC#N [Compound 164, 16-(2-chloro-6-(isopropylsulfonyl)-8-methyl-7H-purin-7-yl)hexadecanenitrile] | 1 to 1000
Cc1nc2nc(Cl)nc(S(=O)(=O)C(C)C)c2n1CCCCCCCCCCCCCCCc1n[nH]c(=O)o1 [Compound 165, 5-(15-(2-chloro-6-(isopropylsulfonyl)-8-methyl-7H-purin-7-yl)pentadecyl)-1,3,4-oxadiazol-2(3H)-one] | 1 to 1000
CC(=O)NCCCCCCCCCCCCCCCCn1c(C)nc2nc(Cl)nc(Cl)c21 [Compound 166, N-(16-(2,6-dichloro-8-methyl-7H-purin-7-yl)hexadecyl)acetamide] | 1 to 1000
Cc1nc2nc(Cl)nc(S(=O)(=O)C(C)C)c2n1CCCCCCCCCCCCCCCc1noc(=O)n1C [Compound 167, 3-(15-(2-chloro-6-(isopropylsulfonyl)-8-methyl-7H-purin-7-yl)pentadecyl)-4-methyl-1,2,4-oxadiazol-5(4H)-one] | 1 to 1000
COC(=O)CCCCCCNCCCCCCCCn1c(C)nc2nc(Cl)nc(S(=O)(=O)C(C)C)c21 [Compound 168, methyl 7-((8-(2-chloro-6-(isopropylsulfonyl)-8-methyl-7H-purin-7-yl)octyl)amino)heptanoate] | 1 to 1000

Each compound was assayed on RIG-I-IRF/NF-κB signaling pathway (assay: Inhibition of 3p-hpRNA-induced RIG-I-IRF/NF-κB signaling). Details: not given.
Assay type: cell-based
Experimental: (§1) Evaluation of activity of compounds in THP-1 cells for their inhibition of STING, LPS, ppp-dsRNA & Poly IC induction: THP-1 cells were treated with different concentrations (10 uM to 0.01 uM) of Compounds for 1 h followed by STING/TLR3/TLR4/RIG-I/TLR7/9 activation by corresponding agonists. Lipofectamine (LTX) was used along with dsRNA, 2′-3′cGAMP & VACV-70. The cells were then incubated for 20 hours @ 37° C. before measuring IRF activation by using Quanti-Luc. The % inhibition was calculated as 100-[(luminescence of COI treated well/luminescence of non COI treated well)/100]×100. Cytotoxicity was measured by using Cell Titer Glo.

Structure (SMILES) | inhibition of 3p-hpRNA-induced RIG-I-IRF/NF-κB signaling pathway
COC(=O)CCCCCCCCCCCCCCCn1cnc2nc(Cl)nc(Cl)c21 [Compound 6] | weakly inhibits

The compounds below were run on TLR4/NF-κB activation (assay: LPS-induced TLR4/NF-κB activation in RAW-WT cells). Details: not given.
Assay type: cell-based

Structure (SMILES) | inhibition of LPS-induced TLR4/NF-κB activation
COC(=O)CCCCCCCCCCCCCCCn1cnc2nc(Cl)nc(Cl)c21 [Compound 6] | seems to inhibit

What follows are compounds tested on cGAS-STING-IRF/NF-κB signaling pathway (assay: Inhibition of dsDNA-induced cGAS-STING-IRF/NF-κB signaling). Details: not given.
Assay type: cell-based
Experimental: as §1

Structure (SMILES) | inhibition of dsDNA-induced cGAS-STING-IRF/NF-κB signaling pathway
COC(=O)CCCCCCCCCCCCCCCn1cnc2nc(Cl)nc(Cl)c21 [Compound 6] | weakly inhibits

The compounds below were run on TLR7/9 signaling pathways (assay: Effect on TLR7/9 signaling). Details: not given.
Assay type: cell-based
Experimental: as §1

Structure (SMILES) | effect on TLR7/9 signaling pathways
COC(=O)CCCCCCCCCCCCCCCn1cnc2nc(Cl)nc(Cl)c21 [Compound 6] | does not affect
